Tests used:
[1] = Determination of the affinity constant for gallium by potentiometric measurements; type: physicochemical; settings: ionic strength 0.1 M KCl, temperature 25° C., in water
Excerpt: Determination of the affinity constant of 4-[3,5-bis(2-hydroxyphenyl)-[1,2,4]triazol-1-yl]benzoic acid for gallium
(§1) Chem. 2004, pp 4177-4192. Considering the affinity constants of 4-[3,5-bis(2-hydroxyphenyl)-[1,2,4]triazol-1-yl]benzoic acid for other metal ions according to Steinhauser et al., Eur. J. Inorg.

[2] = Ranking of affinity constants for metal ions; type: physicochemical; settings: other metal ion constants according to Steinhauser et al., Eur. J. Inorg. Chem. 2004
Excerpt: as §1

affinity constant for Gallium, log β120 [1]: 33.8(1)
Structure (SMILES): O=C(O)c1ccc(-n2nc(-c3ccccc3O)nc2-c2ccccc2O)cc1 [4-[3,5-bis(2-hydroxyphenyl)-[1,2,4]triazol-1-yl]benzoic acid]
ranking according to affinity constants for metal ions [2]: Fe(III) (highest affinity)>Ga(III)>Al(III)>>Cu(II)>>Zn(II)>>Mg(II)>Ca(II)

Reference: US7947673B2, “Method of scintigraphy” (Novartis AG, priority 2005, dated 2011)
